Reference: US20180371044A1, “PEPTIDOMIMETIC MACROCYCLES” (Aileron Therapeutics, Inc., priority 2015, published 2018)
pEC50: −log10 of the molar value. Where a SMILES comes first, the peptide text is derived from it. [ ]: non-standard residue; d: D form. The star is where a group is joined. NiPrTyr = CC(C)N[C@@H](Cc1ccc(O)cc1)C(=O)O; NMeY = CN[C@@H](Cc1ccc(O)cc1)C(=O)O; Nle = CCCC[C@H](N)C(=O)O; Abu = CC[C@H](N)C(=O)O; Hexanoyl = CCCCCC(=O)*; Aib = CC(C)(N)C(=O)O

molecular target: T1, human GHRH receptor (hGHRHR) (Homo sapiens, UniProt Q02643); test: GHRHR agonism measured by cAMP (HTRF) in human 293 cells expressing hGHRHR; type: cell-based; settings: 30 min at RT;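 note: receptor expressed transiently or stably, cells stimulated in serum-free medium, EC50 from a non-linear dose-response fit, maximal response defined by reference GHRH stimulation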
T1 construct: expressed in transfected cells; host or cells: Human 293 cells
T1 sequence (Q02643 23-423): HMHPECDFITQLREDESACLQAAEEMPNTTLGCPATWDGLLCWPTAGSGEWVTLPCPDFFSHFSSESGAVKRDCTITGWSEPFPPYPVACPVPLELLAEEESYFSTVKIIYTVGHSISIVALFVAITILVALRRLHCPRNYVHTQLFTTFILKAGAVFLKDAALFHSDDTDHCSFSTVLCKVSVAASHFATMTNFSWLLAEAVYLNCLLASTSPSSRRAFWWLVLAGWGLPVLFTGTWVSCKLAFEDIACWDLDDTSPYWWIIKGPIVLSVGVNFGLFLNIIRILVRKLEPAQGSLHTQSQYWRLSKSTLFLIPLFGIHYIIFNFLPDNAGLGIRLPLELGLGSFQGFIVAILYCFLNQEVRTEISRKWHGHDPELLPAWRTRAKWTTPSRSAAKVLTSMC

| Compound | pEC50 |
| --- | --- |
| CCCC[C@H](NC(=O)[C@@H](NC(=O)[C@H](CC(=O)O)NC(=O)[C@H](CCC(N)=O)NC(=O)[C@H](CC(C)C)NC(=O)[C@H](C)NC(=O)[C@H](CCCCN)NC(=O)[C@H](CCCNC(=N)N)NC(=O)[C@H](C)NC(=O)[C@H](CO)NC(=O)[C@H](CC(C)C)NC(=O)[C@H](CCC(N)=O)NC(=O)[C@H](C)NC(=O)[C@H](CC(C)C)NC(=O)[C@@H](NC(=O)[C@H](CCCCN)NC(=O)[C@H](CCCNC(=N)N)NC(=O)[C@H](Cc1ccc(O)cc1)NC(=O)[C@H](CO)NC(=O)[C@H](C)NC(=O)[C@@H](NC(=O)[C@H](Cc1ccccc1)NC(=O)[C@@H](NC(=O)[C@H](C)NC(=O)[C@H](CC(=O)O)NC(=O)[C@H](C)NC(=O)[C@H](Cc1ccc(O)cc1)NC(C)C)[C@@H](C)CC)[C@@H](C)O)C(C)C)[C@@H](C)CC)C(=O)N[C@@H](CO)C(=O)N[C@@H](CCCNC(=N)N)C(N)=O [SP-37] (H-[NiPrTyr]ADAIFTASYRKVLAQLSARKALQDI[Nle]SR-NH2) | 8.00 to 9.00 |
| CCCCCC(=O)N[C@@H](Cc1ccc(O)cc1)C(=O)N[C@@H](C)C(=O)N[C@@H](CC(=O)O)C(=O)N[C@@H](C)C(=O)N[C@H](C(=O)N[C@@H](Cc1ccccc1)C(=O)N[C@H](C(=O)N[C@@H](C)C(=O)N[C@@H](CO)C(=O)N[C@@H](Cc1ccc(O)cc1)C(=O)N[C@@H](CCCNC(=N)N)C(=O)N[C@@H](CCCCN)C(=O)N[C@H](C(=O)N[C@@H](CC(C)C)C(=O)N[C@@H](C)C(=O)N[C@@H](CCC(N)=O)C(=O)N[C@@H](CC(C)C)C(=O)N[C@@H](CO)C(=O)N[C@@H](C)C(=O)N[C@@H](CCCNC(=N)N)C(=O)N[C@@H](CCCCN)C(=O)N[C@@H](C)C(=O)N[C@@H](CC(C)C)C(=O)N[C@@H](CCC(N)=O)C(=O)N[C@@H](CC(=O)O)C(=O)N[C@H](C(=O)N[C@@H](CCCC)C(=O)N[C@@H](CO)C(=O)N[C@@H](CCCNC(=N)N)C(N)=O)[C@@H](C)CC)C(C)C)[C@@H](C)O)[C@@H](C)CC [SP-39] (Hexanoyl-YADAIFTASYRKVLAQLSARKALQDI[Nle]SR-NH2) | 8.00 to 9.00 |
| CCCC[C@H](NC(=O)[C@@H](NC(=O)[C@H](CC(=O)O)NC(=O)[C@H](CCC(N)=O)NC(=O)[C@H](CC(C)C)NC(=O)[C@H](C)NC(=O)[C@H](CCCCN)NC(=O)[C@H](CCCNC(=N)N)NC(=O)[C@H](C)NC(=O)[C@H](CO)NC(=O)[C@H](CC(C)C)NC(=O)[C@H](CCC(N)=O)NC(=O)[C@H](C)NC(=O)[C@H](CC(C)C)NC(=O)[C@@H](NC(=O)[C@H](CCCCN)NC(=O)[C@H](CCCNC(=N)N)NC(=O)[C@H](Cc1ccc(O)cc1)NC(=O)[C@H](CO)NC(=O)[C@H](C)NC(=O)[C@@H](NC(=O)[C@H](Cc1ccccc1)NC(=O)[C@@H](NC(=O)[C@H](C)NC(=O)[C@H](CC(=O)O)NC(=O)[C@H](C)NC(=O)[C@H](Cc1ccc(O)cc1)NC(C)=O)[C@@H](C)CC)[C@@H](C)O)C(C)C)[C@@H](C)CC)C(=O)N[C@@H](CO)C(=O)N[C@@H](CCCNC(=N)N)C(N)=O [SP-40] (Ac-YADAIFTASYRKVLAQLSARKALQDI[Nle]SR-NH2) | 8.00 to 9.00 |
| CCCC[C@H](NC(=O)[C@@H](NC(=O)[C@H](CC(=O)O)NC(=O)[C@H](CCC(N)=O)NC(=O)[C@H](CC(C)C)NC(=O)[C@H](C)NC(=O)[C@H](CCCCN)NC(=O)[C@H](CCCNC(=N)N)NC(=O)[C@H](C)NC(=O)[C@H](CO)NC(=O)[C@H](CC(C)C)NC(=O)[C@H](CCC(N)=O)NC(=O)[C@H](C)NC(=O)[C@H](CC(C)C)NC(=O)[C@@H](NC(=O)[C@H](CCCCN)NC(=O)[C@H](CCCNC(=N)N)NC(=O)[C@H](Cc1ccc(O)cc1)NC(=O)[C@H](CO)NC(=O)C(C)(C)NC(=O)[C@@H](NC(=O)[C@H](Cc1ccccc1)NC(=O)[C@@H](NC(=O)[C@H](C)NC(=O)[C@H](CC(=O)O)NC(=O)[C@H](C)NC(=O)[C@H](Cc1ccc(O)cc1)NC)[C@@H](C)CC)[C@@H](C)O)C(C)C)[C@@H](C)CC)C(=O)N[C@@H](CO)C(=O)N[C@@H](CCCNC(=N)N)C(N)=O [SP-41] (H-[NMeY]ADAIFT[Aib]SYRKVLAQLSARKALQDI[Nle]SR-NH2) | ≥ 9.00 |
| CCCC[C@H](NC(=O)[C@@H](NC(=O)[C@H](CC(=O)O)NC(=O)[C@H](CCC(N)=O)NC(=O)[C@H](CC(C)C)NC(=O)[C@H](C)NC(=O)[C@H](CCCCN)NC(=O)[C@H](CCCNC(=N)N)NC(=O)[C@H](C)NC(=O)[C@H](CO)NC(=O)[C@H](CC(C)C)NC(=O)[C@H](CCC(N)=O)NC(=O)[C@H](C)NC(=O)[C@H](CC(C)C)NC(=O)[C@@H](NC(=O)[C@H](CCCCN)NC(=O)[C@H](CCCNC(=N)N)NC(=O)[C@H](Cc1ccc(O)cc1)NC(=O)[C@H](CO)NC(=O)[C@@H](NC(=O)[C@@H](NC(=O)[C@H](Cc1ccccc1)NC(=O)[C@@H](NC(=O)[C@H](C)NC(=O)[C@H](CC(=O)O)NC(=O)[C@H](C)NC(=O)[C@H](Cc1ccc(O)cc1)NC)[C@@H](C)CC)[C@@H](C)O)[C@@H](C)O)C(C)C)[C@@H](C)CC)C(=O)N[C@@H](CO)C(=O)N[C@@H](CCCNC(=N)N)C(N)=O [SP-42] (H-[NMeY]ADAIFTTSYRKVLAQLSARKALQDI[Nle]SR-NH2) | 8.00 to 9.00 |

Second part, the molecule after the results:

| pEC50 | Compound |
| --- | --- |
| ≥ 9.00 | CCCC[C@H](NC(=O)[C@@H](NC(=O)[C@H](CC(=O)O)NC(=O)[C@H](CCC(N)=O)NC(=O)[C@H](CC(C)C)NC(=O)[C@H](C)NC(=O)[C@H](CCCCN)NC(=O)[C@H](CCCNC(=N)N)NC(=O)[C@H](C)NC(=O)[C@H](CO)NC(=O)[C@H](CC(C)C)NC(=O)[C@H](CCC(N)=O)NC(=O)[C@H](C)NC(=O)[C@H](CC(C)C)NC(=O)[C@@H](NC(=O)[C@H](CCCCN)NC(=O)[C@H](CCCNC(=N)N)NC(=O)[C@H](Cc1ccc(O)cc1)NC(=O)[C@H](CO)NC(=O)[C@H](CCC(N)=O)NC(=O)[C@@H](NC(=O)[C@H](Cc1ccccc1)NC(=O)[C@@H](NC(=O)[C@H](C)NC(=O)[C@H](CC(=O)O)NC(=O)[C@H](C)NC(=O)[C@H](Cc1ccc(O)cc1)NC)[C@@H](C)CC)[C@@H](C)O)C(C)C)[C@@H](C)CC)C(=O)N[C@@H](CO)C(=O)N[C@@H](CCCNC(=N)N)C(N)=O [SP-43] (H-[NMeY]ADAIFTQSYRKVLAQLSARKALQDI[Nle]SR-NH2) |
| 8.00 to 9.00 | CCCC[C@H](NC(=O)[C@@H](NC(=O)[C@H](CC(=O)O)NC(=O)[C@H](CCC(N)=O)NC(=O)[C@H](CC(C)C)NC(=O)[C@H](C)NC(=O)[C@H](CCCCN)NC(=O)[C@H](CCCNC(=N)N)NC(=O)[C@H](C)NC(=O)[C@H](CO)NC(=O)[C@H](CC(C)C)NC(=O)[C@H](CCC(N)=O)NC(=O)[C@H](CC)NC(=O)[C@H](CC(C)C)NC(=O)[C@@H](NC(=O)[C@H](CCCCN)NC(=O)[C@H](CCCNC(=N)N)NC(=O)[C@H](Cc1ccc(O)cc1)NC(=O)[C@H](CO)NC(=O)[C@H](C)NC(=O)[C@@H](NC(=O)[C@H](Cc1ccccc1)NC(=O)[C@@H](NC(=O)[C@H](C)NC(=O)[C@H](CC(=O)O)NC(=O)[C@H](C)NC(=O)[C@H](Cc1ccc(O)cc1)NC)[C@@H](C)CC)[C@@H](C)O)C(C)C)[C@@H](C)CC)C(=O)N[C@@H](CO)C(=O)N[C@@H](CCCNC(=N)N)C(N)=O [SP-44] (H-[NMeY]ADAIFTASYRKVL[Abu]QLSARKALQDI[Nle]SR-NH2) |
